Data as given in ChEMBL document CHEMBL5465560, “Selectivity Literature for EUbOPEN Chemogenomic Library” (2024).

Assays:
[1] = biological target: Acylglycerol kinase, mitochondrial (Homo sapiens) (UniProt Q53H12); assay: Selectivity interaction (Kinase panel (KiNativ target engagement assay in Jurkat cells)) EUB0001635a AGK; assay type: cell-based; conditions: Selectivity number of off-targets 0.0, Selectivity number of targets 233.0, Source Knowledge https://www.sciencedirect.com/science/article/pii/S2451945619300674?via%3Dihub, at 1 µM
Chain of Acylglycerol kinase, mitochondrial (Homo sapiens) (Q53H12 whole entry): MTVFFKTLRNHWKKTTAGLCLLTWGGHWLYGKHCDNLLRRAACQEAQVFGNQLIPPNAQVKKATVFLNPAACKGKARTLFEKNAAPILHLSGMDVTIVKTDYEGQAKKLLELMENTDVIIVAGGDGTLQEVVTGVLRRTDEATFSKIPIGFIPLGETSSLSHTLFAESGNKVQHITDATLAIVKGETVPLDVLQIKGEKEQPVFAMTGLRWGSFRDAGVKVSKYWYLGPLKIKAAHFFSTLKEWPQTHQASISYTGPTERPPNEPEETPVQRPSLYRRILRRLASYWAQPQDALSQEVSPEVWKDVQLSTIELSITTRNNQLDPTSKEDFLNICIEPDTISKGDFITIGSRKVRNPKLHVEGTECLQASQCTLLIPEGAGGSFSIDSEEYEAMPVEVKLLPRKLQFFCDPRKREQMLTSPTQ

[2] = biological target: T1, Mitogen-activated protein kinase 12 (Homo sapiens) (UniProt P53778); assay: Selectivity interaction (KinomeScan (DiscoverX)) EUB0000595a MAPK12; conditions: at 10 µM
T1 sequence (whole entry): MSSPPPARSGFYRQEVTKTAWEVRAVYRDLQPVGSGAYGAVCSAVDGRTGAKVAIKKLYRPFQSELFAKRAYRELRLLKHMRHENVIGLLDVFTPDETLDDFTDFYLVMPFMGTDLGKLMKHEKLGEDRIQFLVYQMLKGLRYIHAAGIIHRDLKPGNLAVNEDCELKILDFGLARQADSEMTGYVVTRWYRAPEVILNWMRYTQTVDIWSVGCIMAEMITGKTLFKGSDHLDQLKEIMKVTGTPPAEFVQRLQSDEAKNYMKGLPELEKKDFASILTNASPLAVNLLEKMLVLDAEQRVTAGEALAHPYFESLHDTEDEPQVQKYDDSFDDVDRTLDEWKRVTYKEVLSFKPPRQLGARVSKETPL

[3] = biological target: Histone-lysine N-methyltransferase KMT5B (Homo sapiens) (UniProt Q4FZB7); conditions: at 1 µM
Chain of Histone-lysine N-methyltransferase KMT5B (Homo sapiens) (Q4FZB7 whole entry, looked up): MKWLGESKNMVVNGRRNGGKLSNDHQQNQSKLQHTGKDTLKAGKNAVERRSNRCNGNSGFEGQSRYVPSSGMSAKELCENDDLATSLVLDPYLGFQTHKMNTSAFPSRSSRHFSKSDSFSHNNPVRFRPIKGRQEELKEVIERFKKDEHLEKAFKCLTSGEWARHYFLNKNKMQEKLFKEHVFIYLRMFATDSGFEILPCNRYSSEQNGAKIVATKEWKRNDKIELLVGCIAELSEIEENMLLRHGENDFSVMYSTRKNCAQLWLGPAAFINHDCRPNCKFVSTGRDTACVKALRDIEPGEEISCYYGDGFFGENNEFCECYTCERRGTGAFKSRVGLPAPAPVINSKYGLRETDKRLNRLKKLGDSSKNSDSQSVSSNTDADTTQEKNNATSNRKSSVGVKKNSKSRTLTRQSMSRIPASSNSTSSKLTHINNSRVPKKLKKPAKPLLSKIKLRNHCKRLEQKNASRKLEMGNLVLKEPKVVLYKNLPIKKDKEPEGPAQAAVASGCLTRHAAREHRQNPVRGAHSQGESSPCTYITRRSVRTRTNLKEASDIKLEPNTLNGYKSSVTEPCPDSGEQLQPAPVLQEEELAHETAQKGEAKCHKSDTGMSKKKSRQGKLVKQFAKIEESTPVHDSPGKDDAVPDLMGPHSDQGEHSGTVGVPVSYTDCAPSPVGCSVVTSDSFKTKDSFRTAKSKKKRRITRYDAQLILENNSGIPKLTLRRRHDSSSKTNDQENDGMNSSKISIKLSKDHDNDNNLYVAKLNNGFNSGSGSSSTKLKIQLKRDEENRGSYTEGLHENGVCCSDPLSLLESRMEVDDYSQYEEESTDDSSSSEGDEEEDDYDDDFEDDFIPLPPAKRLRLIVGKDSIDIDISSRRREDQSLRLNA

[4] = biological target: T2, Serine/threonine-protein kinase ICK (Homo sapiens) (UniProt Q9UPZ9); assay: Selectivity interaction (KinomeScan (DiscoverX)) EUB0001049a ICK; conditions: at 1 µM
T2 sequence (whole entry): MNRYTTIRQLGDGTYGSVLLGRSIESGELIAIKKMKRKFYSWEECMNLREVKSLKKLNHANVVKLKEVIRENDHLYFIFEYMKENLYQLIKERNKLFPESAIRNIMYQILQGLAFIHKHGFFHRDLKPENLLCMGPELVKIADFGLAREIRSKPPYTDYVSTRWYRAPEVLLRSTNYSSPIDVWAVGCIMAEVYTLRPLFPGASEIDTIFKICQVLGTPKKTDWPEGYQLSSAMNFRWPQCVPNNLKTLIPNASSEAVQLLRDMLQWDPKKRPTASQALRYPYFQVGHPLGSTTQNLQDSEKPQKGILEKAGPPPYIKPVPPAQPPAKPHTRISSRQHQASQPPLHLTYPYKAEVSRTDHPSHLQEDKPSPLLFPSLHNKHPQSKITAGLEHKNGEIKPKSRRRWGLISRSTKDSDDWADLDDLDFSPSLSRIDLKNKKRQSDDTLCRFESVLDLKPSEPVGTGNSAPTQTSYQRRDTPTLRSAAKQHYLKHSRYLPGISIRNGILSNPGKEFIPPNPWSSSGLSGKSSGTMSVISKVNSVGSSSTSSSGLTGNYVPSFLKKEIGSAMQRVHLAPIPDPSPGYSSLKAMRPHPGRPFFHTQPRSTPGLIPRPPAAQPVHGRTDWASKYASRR

[5] = biological target: Phosphatidylinositol 4,5-bisphosphate 3-kinase catalytic subunit alpha isoform (Homo sapiens) (UniProt P42336); conditions: at 10 µM
Chain of Phosphatidylinositol 4,5-bisphosphate 3-kinase catalytic subunit alpha isoform (Homo sapiens) (P42336 whole entry, canonical isoform): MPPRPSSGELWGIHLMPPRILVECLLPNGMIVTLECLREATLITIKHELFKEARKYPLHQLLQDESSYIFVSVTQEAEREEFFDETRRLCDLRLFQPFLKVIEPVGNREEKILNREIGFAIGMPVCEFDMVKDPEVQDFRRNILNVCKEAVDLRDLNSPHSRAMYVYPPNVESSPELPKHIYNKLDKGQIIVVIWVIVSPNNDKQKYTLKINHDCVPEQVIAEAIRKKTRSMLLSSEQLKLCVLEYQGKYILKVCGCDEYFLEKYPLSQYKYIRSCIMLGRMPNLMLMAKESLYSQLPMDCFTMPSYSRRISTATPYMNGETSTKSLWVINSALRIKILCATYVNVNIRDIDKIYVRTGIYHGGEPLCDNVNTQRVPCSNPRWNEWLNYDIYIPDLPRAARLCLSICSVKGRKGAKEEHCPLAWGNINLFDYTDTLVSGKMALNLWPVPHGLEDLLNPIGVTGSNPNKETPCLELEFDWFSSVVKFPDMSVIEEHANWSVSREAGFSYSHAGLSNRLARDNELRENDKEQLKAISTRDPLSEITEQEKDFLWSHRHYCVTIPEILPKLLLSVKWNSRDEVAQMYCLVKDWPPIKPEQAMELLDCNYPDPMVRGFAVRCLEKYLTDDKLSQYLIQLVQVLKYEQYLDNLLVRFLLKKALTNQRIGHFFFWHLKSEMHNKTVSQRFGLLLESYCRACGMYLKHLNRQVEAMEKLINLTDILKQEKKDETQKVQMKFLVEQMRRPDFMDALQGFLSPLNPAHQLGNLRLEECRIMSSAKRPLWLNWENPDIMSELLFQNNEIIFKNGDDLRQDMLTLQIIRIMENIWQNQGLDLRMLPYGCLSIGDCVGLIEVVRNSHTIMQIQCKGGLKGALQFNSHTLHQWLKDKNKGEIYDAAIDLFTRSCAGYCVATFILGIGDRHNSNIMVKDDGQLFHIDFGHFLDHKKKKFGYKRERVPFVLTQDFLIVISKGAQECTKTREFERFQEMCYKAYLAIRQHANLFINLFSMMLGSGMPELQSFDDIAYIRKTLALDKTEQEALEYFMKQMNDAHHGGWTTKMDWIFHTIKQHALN

KCNQ1 = KCNQ1 (Homo sapiens, UniProt P51787); assay: Selectivity interaction (Panel of kinases, GPCRs, ion channels and transporters (enzymatic assay)) EUB0000266bCl KCNQ1
Chain of KCNQ1 (P51787 whole entry): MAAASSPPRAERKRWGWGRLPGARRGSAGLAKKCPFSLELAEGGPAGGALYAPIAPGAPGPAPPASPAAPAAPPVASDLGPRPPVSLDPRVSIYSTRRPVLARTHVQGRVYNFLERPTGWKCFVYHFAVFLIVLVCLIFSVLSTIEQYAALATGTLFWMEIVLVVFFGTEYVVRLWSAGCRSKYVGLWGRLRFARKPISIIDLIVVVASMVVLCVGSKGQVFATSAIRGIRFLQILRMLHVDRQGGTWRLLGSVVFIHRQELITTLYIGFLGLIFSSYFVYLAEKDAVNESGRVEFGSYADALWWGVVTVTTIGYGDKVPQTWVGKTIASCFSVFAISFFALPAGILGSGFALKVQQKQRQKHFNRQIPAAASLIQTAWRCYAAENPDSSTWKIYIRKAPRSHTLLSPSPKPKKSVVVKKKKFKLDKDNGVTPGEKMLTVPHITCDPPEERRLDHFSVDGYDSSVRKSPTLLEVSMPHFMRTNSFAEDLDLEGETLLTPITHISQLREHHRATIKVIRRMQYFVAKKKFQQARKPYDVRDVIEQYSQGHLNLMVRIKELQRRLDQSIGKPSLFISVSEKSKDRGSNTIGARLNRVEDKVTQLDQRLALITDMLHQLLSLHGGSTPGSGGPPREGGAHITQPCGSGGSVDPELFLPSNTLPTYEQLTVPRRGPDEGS

[6] = biological target: T3, Muscle, skeletal receptor tyrosine-protein kinase (Homo sapiens) (UniProt O15146); assay: Selectivity interaction (KinomeScan (DiscoverX)) EUB0000655a MUSK; conditions: at 10 µM
T3 sequence (whole entry): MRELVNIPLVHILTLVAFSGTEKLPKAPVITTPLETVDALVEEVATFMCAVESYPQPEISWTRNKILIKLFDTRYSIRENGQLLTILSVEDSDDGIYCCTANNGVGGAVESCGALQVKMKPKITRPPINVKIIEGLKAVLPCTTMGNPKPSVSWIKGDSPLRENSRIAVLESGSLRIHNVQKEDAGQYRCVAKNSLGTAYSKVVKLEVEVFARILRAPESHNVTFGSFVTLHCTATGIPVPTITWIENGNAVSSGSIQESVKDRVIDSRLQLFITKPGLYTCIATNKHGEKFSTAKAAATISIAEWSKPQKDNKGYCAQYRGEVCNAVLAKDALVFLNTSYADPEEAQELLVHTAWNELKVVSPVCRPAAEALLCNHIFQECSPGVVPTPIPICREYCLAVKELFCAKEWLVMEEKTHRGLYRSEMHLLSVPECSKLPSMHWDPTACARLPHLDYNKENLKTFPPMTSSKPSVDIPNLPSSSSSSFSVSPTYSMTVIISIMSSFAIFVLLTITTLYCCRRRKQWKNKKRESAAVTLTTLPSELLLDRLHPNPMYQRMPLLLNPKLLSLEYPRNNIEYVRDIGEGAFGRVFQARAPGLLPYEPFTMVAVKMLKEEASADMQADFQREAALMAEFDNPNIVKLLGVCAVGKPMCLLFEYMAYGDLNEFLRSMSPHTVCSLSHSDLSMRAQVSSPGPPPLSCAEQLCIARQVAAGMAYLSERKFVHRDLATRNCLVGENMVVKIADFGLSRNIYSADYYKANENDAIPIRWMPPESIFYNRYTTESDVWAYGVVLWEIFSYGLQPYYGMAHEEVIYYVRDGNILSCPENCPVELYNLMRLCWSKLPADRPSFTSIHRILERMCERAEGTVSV

[7] = biological target: Casein kinase I isoform delta (Homo sapiens, UniProt P48730); assay: Selectivity interaction (KinomeScan (DiscoverX)) EUB0000092b CSNK1D; conditions: at 10 µM
Chain of Casein kinase I isoform delta (P48730 whole entry, looked up, canonical isoform): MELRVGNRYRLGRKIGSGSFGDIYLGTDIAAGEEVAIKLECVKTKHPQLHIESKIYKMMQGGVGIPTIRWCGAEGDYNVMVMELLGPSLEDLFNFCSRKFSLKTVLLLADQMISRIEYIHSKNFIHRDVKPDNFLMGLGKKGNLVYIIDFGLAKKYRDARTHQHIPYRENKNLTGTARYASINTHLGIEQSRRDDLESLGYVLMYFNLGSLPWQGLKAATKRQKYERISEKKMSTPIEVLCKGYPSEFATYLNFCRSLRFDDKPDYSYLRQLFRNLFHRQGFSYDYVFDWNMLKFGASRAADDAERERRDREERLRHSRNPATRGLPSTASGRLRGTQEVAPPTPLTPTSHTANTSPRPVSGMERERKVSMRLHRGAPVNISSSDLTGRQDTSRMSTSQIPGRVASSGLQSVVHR

C=CC(=O)Nc1ccc(C(=O)Nc2[nH]nc3c2CN(C(=O)N[C@H](CN(C)C)c2ccccc2)C3(C)C)cc1
% of engagement [1]: -3.9%

COCC(=O)NC/C=C/c1ccc2ncnc(Nc3ccc(Oc4ccc(C)nc4)c(C)c3)c2c1 [CP-724714]
% of control [2]: 100%

CNCCN1CCC(c2cc(CN(C)C(=O)c3cccc(Oc4ccccc4)c3)ccn2)CC1
% activity [3]: > 90%

COc1cc(Nc2nc(C)cc(-c3cnn4nc(OC)ccc34)n2)cc(C(F)(F)F)c1
% of control [4]: 85%

CCC(=O)N1CC[C@H](Nc2ncnc3c2CN(c2cnc(OC)c(C(F)(F)F)c2)CC3)C1 [LENIOLISIB]
% of inhibition [5]: 96%

CCn1c(-c2nc3cc(C(=O)N4CCCC(N)C4)ccc3n2C)cc2ccccc21 (stereo not drawn)
XC50 (KCNQ1): > 25.1 µM

CN(C)CCOc1ccc(-c2nc(-c3ccncc3)c(-c3ccc4c(c3)CC/C4=N\O)[nH]2)cc1
% of control [6]: 98%

CCC(=O)N1CCN(c2ccc(-n3c(=O)ccc4cnc5ccc(-c6cnc7ccccc7c6)cc5c43)cc2C(F)(F)F)CC1
% of control [7]: 4.3%
